From patent US20180265867A1, “NUCLEIC ACID MOLECULES WITH ENHANCED ACTIVITY” (priority 2015, published 2018)
{Cy3} = Cy3 fluorescent dye label; d = 2'-deoxy (DNA); r = 2'-OH (RNA)

What was measured:
[1] = system: GAPDH; assay: GAPDH gene knockdown in MG63 cells by RT-PCR; format: cell-based, human; details: MG63 cells, carrier-free transfection, 50 nM, 24 h
Protocol: At 70% confluency, a day prior to transfection, the cells were seeded at a density of 35 000 cells in a 24-well cell culture plate to achieve 60-80% confluence at the day of transfection. Cell penetrating siRNAs (cpRNAs) of different lengths were transfected at 50 nM concentrations with Magnet Assisted Transfection (MATra-si) reagent for siRNAs (IBA GmbH, Göttingen, Germany) according to the manufacturers' protocols. Briefly, the siRNA was mixed with MATra-si reagent composed of supermagnetic ironoxide nanoparticles and incubated for 20 min. A complex was formed which was added to the cells to be transfected. A strong magnetic force was applied beneath the cells for 15 min. This forced the complex to be drawn into the cells by the magnetic field, and as a result the siRNA was delivered directly into the cytosol. For carrier free transfection experiments, cpRNAs were simply added to cells lines MG63, HOB, HCT116, fibroblasts and keratinocytes at 50 nM concentrations. Cells were also transfected with negative control siRNA (scrambled sequence) and cells left untreated were taken as controls. Each transfection was performed in triplicate. Post transfection, cells were incubated for 24 hours.
For the experiments involving lysosomotropic agent chloroquine (CQ), CQ was first neutralized to pH 7.4 using 1 M NaOH prior to use. MG63 cells were transfected with dT2, dT5, dT8, (dT5)2, as(dT5), and bl(dT5) siRNA in presence or absence of 100 μM CQ or using MATra-si and incubated for 24 h. Similar experiments were performed for other cpRNAs namely, dA5, dT5, dG5, (dT5)2, rA5 and dC5. For the control experiment, cells were either left untreated or transfected with negative control siRNA (scrambled sequence). Each transfection experiment was performed in triplicate.
After performing transfection experiments for 24 h, 48 h and 72 h respectively, total RNA was isolated from cells by adding 500 μl of lysis buffer (Qiagen, Germany), followed by homogenization of cell lysates using QIAshredder (Qiagen, Germany). RNA was extracted from cell lysates by RNeasy Mini Kit (Qiagen, Germany). All RNA samples were treated with DNase using TURBO-DNAfree (Ambion, USA). Agilent 2100 BioAnalyzer (Agilent Technologies, Palo Alto, Calif.) was used to confirm high quality of all RNA samples, which reports an RNA Integrity Number (RIN) that takes into account the entire electrophoretic RNA trace produced in the analysis. A RIN of greater than or equal to seven indicates the RNA is suitable for high stringency applications.
cDNA synthesis was performed in triplicate using total RNA reverse transcribed using High Capacity cDNA reverse transcription kit (Applied Biosystems, USA), with non-template control added to ensure a lack of signal in assay background. Reactions were incubated on a 96-well Applied Biosystems 9800 Fast Thermal Cycler PCR System at 37° C. for 60 min followed by 95° C. for 5 min. The real-time PCR reactions were carried out with 10 μl of 2×TaqMan® Universal PCR Master Mix, no AmpErase® UNG (Applied Biosystems, USA), 9 μl diluted cDNA, and 1 μl of TaqMan gene specific assay mix in a 20 μl final reaction volume. Reference gene beta-actin (ACTB) (Applied Biosystems, USA) was selected as control for normalization of TaqMan data. The assay included a no-template control, a standard curve of five serial dilution points (in steps of 3-fold) of cDNA mixture. Probes specific for IFN-α (Hs01022060_m1), IFN-β (Hs01077958_s1), IFN-γ (Hs00985251_m1), ACTB(Hs01060665_g1) and GAPDH (Hs02758991_g1) were purchased from Applied Biosystems. The amplification was carried out using the 7500 Fast Real-Time PCR System (Applied Biosystems, USA) using a 40-cycle program. The 7500 software automatically calculates raw Ct (cycle threshold) values. Data from samples with a Ct value equal to or below 35 were further analyzed. […]

[2] = system: MG63 cells; assay: Flow cytometry uptake kinetics and ODN2006 blocking in MG63 cells; format: cell-based, human; details: MG63 cells, 50 nM, 37° C.
Protocol: To determine cpRNA cellular uptake kinetics, FACS experiments were repeated as mentioned above using MG63 cells, where Cy3-cpRNA was treated for different time points. Briefly, Cy3-cpRNA (50 nM) was added to cells, followed by incubation for 0.5 h, 1 h, 1.5 h, 2 h, 3 h and 4 h respectively. The cells were subsequently trypsinised and analyzed by FACS as mentioned above.
To perform […] blocking studies, seeded MG63 cells were incubated with 600 nM 3′-FITC labeled ODN2006 for 1 h, followed by addition of 50 nM cpRNA. Cells were incubated for additional 0.5 h, 1 h, 1.5 h, 2 h, 3 h and 4 h respectively, trypsinised and analyzed by FACS analysis as mentioned above.
To verify if the uptake mechanism of cpRNA was analogous to viral RNA and the RNA mimic polyriboinosinic:polyribocytidylic acid or poly(I:C), blocking studies were performed using the Btype single-stranded DNA sequence ODN2006 which share a common uptake receptor. This synthetic phosphorothioate modified oligo, though initially identified as a TLR9 agonist, blocks cellular uptake of viral RNA and poly(I:C) by preferentially competing with the common RNA uptake receptor. Blocking experiment were performed by pre-incubating the cells with FITC labeled ODN2006 for 1 h, followed by the addition of Cy3-labeled cpRNA. The blocking studies and cellular uptake was monitored using FACS analysis at different time points for up to 4 h. As a control experiment, the uptake kinetics was performed in the absence of FITC labeled ODN2006. […] These experiments verified the involvement of an alternate uptake mechanism and indicated the presence of a ubiquitous RNA capture receptor that required ˜1 h of maturation time before the endocytosis process could initiate.

[3] = system: MG63, HOB, HCT116, HEK293 and MC3T3 cells; assay: Flow cytometry cellular uptake of Cy3-cpRNA in different cells; format: cell-based, human; mouse; details: 50 nM, 24 h at 37° C., carrier-free
Protocol: To determine the amount of cellular uptake of cpRNA by flow cytometry, Cy3 labeled cpRNA (Table 3) was used for transfection experiments using different types of cells (MG63, HOB, HCT116, HEK293 and MC3T3). Cells were seeded at a density of 1×10^5 cells per well and cultured for 24 hours. Thereafter, cells were transfected with 50 nM Cy3-cpRNA, with control wells left untreated. Post-transfection, cells were incubated for further 24 h at 37° C., trypsinised and washed with PBS containing 2 mM EDTA and 0.5% human serum albumin. The cells were then suspended in PBS and subjected to fluorescence analysis on a FACSCanto II (BD Biosciences) BioVis platform, scilife laboratory. The images were analyzed using FlowJo software (version 7.6; TreeStar, Ashland, Oreg.).

[4] = Thermal denaturation (Tm) of siRNA duplexes; format: physicochemical
Protocol: Thermal denaturation studies of siRNA was carried out in phosphate buffer, pH 7.0, containing 140 mM KCl. UV absorbance was monitored at 260 nm in the temperature range from 40 to 95° C. using a Lambda 35 UV-Vis spectrophotometer equipped with a Peltier temperature programmer with a heating rate of 0.5° C./min. Samples (1 μM RNA) were denatured at 90° C. for 3 min followed by slow cooling to 27° C. prior to the measurements. Tm values were obtained from the maxima of the first derivatives of the melting curves. All Tm values given are the averages of three independent sets of experiments (±0.3° C. error range).

[5] = system: MG63 and HOB cells; assay: Cell proliferation / toxicity by MTS assay; format: cell-based, human; details: 50 and 100 nM, 24 h post transfection
Protocol: Cell proliferation was assessed by MTS (3-(4,5-dimethylthiazol-2-yl)-5-(3-carboxymethoxyphenyl)-2-(4-sulfophenyl)-2H-tetrazolium, inner salt) reagent assay: MG63 cells were seeded at a density of 35 000 cells in 24-well culture plates, and cultured for 24 hours as mentioned above. Cells were transfected with 50 nM or 100 nM concentrations of cpRNA and negative control siRNAs with or without MATra-si, while control wells were left untreated. Each transfection experiment was performed in triplicate. Post-transfection, cells were incubated for 24 hours at 37° C. The viable cells were evaluated by MTS assay, using CellTiter 96®AQueousOne Solution Cell Proliferation Assay (Promega, USA) according to the manufacturer's protocol. The enzymatic reduction in MTS to formazan was quantified by an ELISA plate reader (Thermo Scientific) at 490 nm.
Thus, the role of siRNA topography on immune activation and cellular toxicity was investigated because increased RNA length has been reported to cause toxicity with increased interferon (IFN)-β expression. toxicity studies were performed using the MTS assay with two concentrations of GAPDH siRNA (50 and 100 nM) with different overhang lengths (dT2, dT5, and dT8) in MG63 and HOB cells and compared it with the scrambled siRNA sequence (FIG. 5).

[6] = system: MG63 cells; details: no own experiment described; cited from earlier work

| Substance | GAPDH gene knockdown [1] [%] | time after which cellular uptake was initiated [2] [h] | time in which uptake finished after initiation [2] [h] | cellular uptake by flow cytometry ([3]; listed as Cy3-labeled cpRNA) | cellular uptake by flow cytometry ([3]; listed as Cy3 labeled cpRNA) | Tm ([4]; 7.5 mM phosphate buffer pH 7.0 containing 140 mM KCl, 1 μM strands, 40-95° C.) [°C] | Δ Tm ([4]; Tm relative to canonical siRNA (dT2)) [°C] | drop in Tm ([4]; as compared to canonical siRNA) [°C] | cytotoxicity (MTS assay) [5] | uptake kinetics [6] [min] |
| --- | --- | --- | --- | --- | --- | --- | --- | --- | --- | --- |
| Cy3 cpRNA: GAPDH cpRNA with Cy3 at 5′-end of sense strand (SEQ ID NO: 12, dT5), antisense SEQ ID NO: 2 (sense CCGAGCCACAUCGCUCAGATTTTT; antisense UCUGAGCGAUGUGGCUCGGTT; sense: sugars from the 5' end r19 d5, 5' {Cy3}, backbone not given here; antisense: sugars from the 5' end r19 d2, backbone not given here) | 80 | 1 | ≤ 2 | near quantitative cellular uptake | quantitatively taken up by all the cells |  |  |  |  |  |
| dT8: GAPDH siRNA, sense SEQ ID NO: 4 with dT8 3′-overhang, antisense SEQ ID NO: 2 with dT2 (sense CCGAGCCACAUCGCUCAGATTTTTTTT; antisense UCUGAGCGAUGUGGCUCGGTT; sense: sugars from the 5' end r19 d8, backbone not given here; antisense: sugars from the 5' end r19 d2, backbone not given here) | 50 |  |  |  |  | 79.8 | −1.4 | 1.5 | do not impose toxicity |  |
| polyriboinosinic:polyribocytidylic acid [poly(I:C)] |  |  |  |  |  |  |  |  |  | ≤ 5 |
